Marks after values point to notes of the source that are not given here.
Experiments:
SW620 xenograft tumors = test: Antitumor efficacy in human colorectal carcinoma SW620 mouse xenograft model; type: in vivo; conditions: for % T/C day 16: SW620 xenograft
Procedure: (§1) The in vivo anticancer activity of Example 4 is studied in human colorectal adenocarcinoma cell line SW620 mouse xenograft tumor model which is predicted to be sensitive based on in vitro cell counting proliferative assay data described above. The SW620 cell line is obtained from American Type Culture Collection (ATCC) and is cultured in Leibovitz's L-15 Medium with 10% fetal bovine serum following ATCC instructions. SW620 cell suspension (5.0×10^6/0.2 mL) is injected subcutaneously to the right flank of each female athymic Balb/c nude mice. The mice (5-6 weeks old at arrival) are obtained from Shanghai Sippr-bk Laboratory Animals Ltd. Upon receipt and throughout the study, the animals are housed 5 animals per cage in appropriately sized solid-bottom cages with contact bedding Animals are acclimated for 7 days prior to implantation of the SW620 cells. Animals are fed with Shanghai Laboratory Animal Center certified Rodent Diet with 23% Protein ad libitum and autoclaved tap water is provided ad libitum. The animal room is maintained on a 12-hour light/dark cycle. When the tumor volume reaches an average of 154.9 mm^3 (9 days post tumor implantation), the tumor bearing animals are randomly grouped into 9 groups (8 animals/group) with similar mean tumor volume and body weight. The average body weight of the tumor-bearing mice is 17.3 g. The compound is formulated in HEC 1% w/v, P80 0.25% v/v, and antifoam 1520-US 0.025% v/v in deionized water by probe sonication for 15 minutes on ice and compound formulation is prepared daily for animal dosing. The formulated compound is administered at 10.4, 20.8 and 31.2 mg/kg doses (containing 10, 20 and 30 mg/kg active pharmaceutical ingredient API, respectively) twice a day (BID) by oral gavage (0.1 mL/20 g) for 2 weeks. The BID dosing is performed about 8 hours apart (approximately 9 am and 5 pm each day). The vehicle is also given BID as the control arm of the study. Tumor volume and body weight are measured 3 times a week in a blinded manner. Tumor volume is determined by caliper measurements (mm) and using the formula for an ellipsoid sphere: tumor volume (mm^3)=length×width^2/2, where length and width refer to the larger and smaller perpendicular dimensions collected at each measurement. The animal behavior and animal health are monitored twice a day during dosing period. The study is terminated on day 28 post treatment initiation.
(§2) The statistical analysis of the tumor volume data begins with a data transformation to a log scale to equalize variance across time and treatment groups. The log volume data are analyzed with a two-way repeated measures analysis of variance by time and treatment using the MIXED procedures in SAS software (Version 9.3). The correlation model for the repeated measures is Spatial Power. Treated groups are compared to the control group at each time point. The MIXED procedure is also used separately for each treatment group to calculate adjusted means and standard errors at each time point. Both analyses account for the autocorrelation within each animal and the loss of data that occurs when animals with large tumors are removed from the study early. The adjusted means and standard errors are plotted for each treatment group versus time. The analysis comparing the treated groups to the control groups at each time point uses the log 10 tumor volumes and produces the p-values. For statistical significance of p-values shown, “***”=P<0.001.
(§3) If T>T0, the Delta T/C, % calculation is used. […]

[1] = as above; type: in vivo; conditions: female, athymic Balb/c nude, mouse, in vivo, po; BID orally for 2 weeks, tumor-bearing nude mice; read-out: maximum tolerated dose
Procedure: as §1, §2, §3

What does the source list for `CC1(c2ncncc2F)NC(=O)c2cc(-c3cn[nH]c3)ccc21` (single isomer, unassigned; isomer 2) [Example 4, 3-(5-Fluoropyrimidin-4-yl)-3-methyl-6-(1H-pyrazol-4-yl)isoindolin-1-one, Isomer 2, Hydrate]?
% T/C day 16 (SW620 xenograft tumors; 10.4 mg/kg BID × 14, orally): 26.1*** %; % T/C day 16 (SW620 xenograft tumors; 20.8 mg/kg BID × 14, orally): 5.7*** %; % T/C day 16 (SW620 xenograft tumors; 31.2 mg/kg BID × 14, orally, negative value = regression): −66.1*** %; tumor growth after dosing cessation (SW620 xenograft tumors; 31.2 mg/kg BID, 2 weeks after dosing cessation): no significant tumor growth; MTD at 2 weeks [1]: 31.2 mg/kg

From patent US9156824B2, “CDC7 inhibitors” (Eli Lilly and Company, priority 2013, dated 2015)
